Structures are written as SMILES. Bounds are passed on as bounds.

By IC50 is commonly meant the concentration that inhibits the measured activity by half.

Data set [1] is described as follows: Plasma protein binding, equilibrium dialysis, human plasma. The data set is classed as in vitro ADME. The settings on record: 5 hours at 37° C., read-out: PPB % bound Human (converted). The procedure: (§1) The compounds of interest were evaluated for various PK parameters. Specifically CACO permeability/efflux and plasma protein binding (PPP) were determined. Stock solutions were prepared at 10 mM in DMSO for test and reference compounds. Aliquots of the stock solution were diluted to 500× of final concentration (0.5 mM) with DMSO, then further diluted upon the addition of bank PE3-buffer to 20× of final concentration (20 μM). Then test and reference compounds were prepared in plasma at 1 μM. For 0 hour incubation: 25 μL of the plasma spiked with test and reference compounds was transferred into a 96-well sample preparation plate, and then 25 μL blank PB-buffer was added. The samples were quenched by 200 μL of IS solution to prepare [Initial]0h samples. For 5 hours incubation: 100 μL of the plasma spiking with test and reference compounds was loaded on donor side, and 100 μL of blank PB-buffer were loaded on receiver side of the equilibrium dialysis device. Samples were incubated in an air-bath shaker (60 rpm) for 5 hours at 37° C. After 5 hours incubation, 25 μL of samples (from both the donor sides and receiver sides of the dialysis apparatus) was aspirated and added into new sample preparation plates, separately. 25 μL of blank PB-buffer was added to donor side samples and 25 μL of blank plasma was added to receiver side samples to balance the matrix. The samples were quenched with 200 μL of IS solution. The assay plate was shaken at the vibrator (Hangzhou Allsheng, MX100-4A) for 10 min (600 rpm) and then centrifuged at 5,594×g for 15 min (Thermo Multifuge×3R). An aliquot of the 50 μL supernatant was taken from each well and diluted by 50 μL distilled water, then analyzed by UPLC-MS/MS.

A short description of data set [2]: Plasma protein binding, equilibrium dialysis, mouse plasma. The settings on record: 5 hours at 37° C., read-out: PPB % bound Mouse (converted). The data set is classed as in vitro ADME. The method, then:
as §1

Data set [3] concerns sumoylation levels (SUMO 2/3 conjugates) in HCT-116 cells. The experiment in a line: HCT-116 4 Hour Cell Assay (Western, SUMO 2/3 conjugates). The note with it: Homo sapiens, HCT-116, 4 h, 4 h treatment, Anti-Sumo 2-3 immunoblot, read-out: HCT-116 Western 4 h IC50 (μM) Ave. The data set is classed as cell-based. An outline of the steps:
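Cells treated 4 h with 11 three-fold dilutions from 25 μM; lysed in RIPA with NEM and Benzonase. Non-reducing SDS-PAGE immunoblot with anti-SUMO 2/3 mAb, IRDye fluorescent detection; conjugate signal normalized to total protein stain, IC50 from quantified bands.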
On the technique in general: Immunoblotting shows a protein as a band on a membrane.

Data set [4] concerns the target SAE1 (Homo sapiens (Human), UniProt Q9UBE0+Q9UBT2). The experiment in a line: SAE High Throughput Biochemical Assay (HTRF), 15 min preincubation. The note with it: read-out: 15 min preincubation HTRF IC50 (μM) Ave, SAE1 12.5 nM, ATP 100 μM. An outline of the steps: (§2)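 SAE1 (12.5 nM) was preincubated with compound for 15 min at RT in HEPES pH 7.5, 0.1% BSA, 10 mM MgCl2. The reaction was then started with SUMO-GST and UBC9-His (40 nM each) plus 100 μM ATP for 45 min. After KF stop, HTRF (anti-GST-XL665/anti-His-EuK) was read at 2 h and overnight; some compounds were tested singly at 25 micromolar as percent of control.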
A general note: In TR-FRET formats the signal depends on donor and acceptor labels being close together.

In data set [5] the target is SAE1 (Homo sapiens (Human), UniProt Q9UBT2). The data set is described as above. The settings on record: SAE1 12.5 nM, ATP 100 μM. An outline of the steps:
as §2

Chain of SAE1 (Homo sapiens (Human), UniProt Q9UBT2) (Q9UBE0 whole entry): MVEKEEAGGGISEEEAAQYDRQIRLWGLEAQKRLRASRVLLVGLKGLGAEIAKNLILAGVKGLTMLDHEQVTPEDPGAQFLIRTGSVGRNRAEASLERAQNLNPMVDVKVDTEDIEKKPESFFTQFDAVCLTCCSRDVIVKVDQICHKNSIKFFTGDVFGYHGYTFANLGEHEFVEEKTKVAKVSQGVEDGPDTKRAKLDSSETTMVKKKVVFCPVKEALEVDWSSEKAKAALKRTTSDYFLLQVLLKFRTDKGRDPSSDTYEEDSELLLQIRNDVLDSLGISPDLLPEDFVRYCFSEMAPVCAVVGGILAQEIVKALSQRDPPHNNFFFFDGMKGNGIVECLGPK
Chain of SAE1 (Homo sapiens (Human), UniProt Q9UBT2) (Q9UBT2 whole entry): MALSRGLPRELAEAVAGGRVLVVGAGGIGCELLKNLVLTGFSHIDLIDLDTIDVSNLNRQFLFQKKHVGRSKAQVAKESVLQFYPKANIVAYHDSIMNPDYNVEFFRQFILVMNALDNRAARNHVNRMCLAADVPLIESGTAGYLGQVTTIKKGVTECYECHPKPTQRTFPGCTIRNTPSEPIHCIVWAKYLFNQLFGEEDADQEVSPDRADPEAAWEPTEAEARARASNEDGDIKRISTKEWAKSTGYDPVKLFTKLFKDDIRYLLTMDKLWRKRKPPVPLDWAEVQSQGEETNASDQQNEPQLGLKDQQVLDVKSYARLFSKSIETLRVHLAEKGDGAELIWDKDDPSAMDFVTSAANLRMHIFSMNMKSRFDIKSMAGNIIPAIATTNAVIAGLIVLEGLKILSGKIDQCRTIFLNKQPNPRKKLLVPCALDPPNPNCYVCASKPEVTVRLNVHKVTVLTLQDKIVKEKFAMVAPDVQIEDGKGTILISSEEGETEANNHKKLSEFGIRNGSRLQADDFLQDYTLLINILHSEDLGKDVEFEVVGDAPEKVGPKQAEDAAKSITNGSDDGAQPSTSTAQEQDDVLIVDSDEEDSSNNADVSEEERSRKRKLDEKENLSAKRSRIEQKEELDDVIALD
Chain of SAE1 (Homo sapiens (Human), UniProt Q9UBE0+Q9UBT2) (Q9UBE0 whole entry): as the sequence (Q9UBE0 whole entry) above
Chain of SAE1 (Homo sapiens (Human), UniProt Q9UBE0+Q9UBT2) (Q9UBT2 whole entry): as the sequence (Q9UBT2 whole entry) above

Take `CCn1cc(-c2ccccc2[C@@H]2CN(C(=O)/C=C/CN(C)C)Cc3sc(Cl)cc32)c(C(F)(F)F)n1` [Comp. Ex. 2, reference compound]: the fraction unbound at 5 h, 1 μM in data set [1] was 0.008; in data set [2] it was less than 0.003.

In the case of `C=CC(=O)N1Cc2sc(C#N)cc2[C@H](c2cccc(F)c2-c2cn(CC)nc2C(F)(F)F)C1` [Compound 227], the values for the IC50 in data set [3] and in data set [4] were 0.057 µM and 0.12 µM, respectively. The fraction unbound at 5 h, 1 μM in data set [2] was 0.021.

Regarding `[2H]C([2H])([2H])N(C/C=C/C(=O)N1Cc2sc(C#N)cc2[C@H](c2ccccc2-c2cn(CC)nc2C(F)(F)F)C1)C([2H])([2H])[2H]` [Example 245, (S,E)-6-(4-(bis(methyl-d3)amino)but-2-enoyl)-4-(2-(1-ethyl-3-(trifluoromethyl)-1 H-pyrazol-4-yl)phenyl)-4,5,6,7-tetrahydrothieno[2,3-c]pyridine-2-carbonitrile], the IC50 in data set [3] was 0.207 µM; in data set [5], 4150 nM.

In the case of `[2H]C([2H])([2H])N(C/C=C/C(=O)N1Cc2sc(C#N)cc2[C@H](c2cccc(F)c2-c2cn(CC)nc2C(F)(F)F)C1)C([2H])([2H])[2H]` [Example 48, (S,E)-6-(4-(bis(methyl-d3)amino)but-2-enoyl)-4-(2-(1-ethyl-3-(trifluoromethyl)-1 H-pyrazol-4-yl)-3-fluorophenyl)-4,5,6,7-tetrahydrothieno[2,3-c]pyridine-2-carbonitrile], the IC50 amounted to 0.197 µM in data set [3] and 1120 nM in data set [5].

With `CCn1cc(-c2c(F)cccc2[C@@H]2CN(C(=O)/C=C\CNC)Cc3sc(C#N)c(C)c32)c(C(F)(F)F)n1` [Compound 225], the figures for the concentration for half-maximal inhibition (IC50) in data set [3] and in data set [5] were 0.298 µM and 34 nM, respectively.

`CCn1cc(-c2c(F)cccc2[C@@H]2CN(C(=O)/C=C/[C@@H]3CCCN3)Cc3sc(C#N)c(C)c32)c(C(F)(F)F)n1` [Example 249, (S)-4-(2-(1-ethyl-3-(trifluoromethyl)-1 H-pyrazol-4-yl)-3-fluorophenyl)-3-methyl-6-((E)-3-((S)-pyrrolidin-2-yl)acryloyl)-4,5,6,7-tetrahydrothieno[2,3-c]pyridine-2-carbonitrile]: the IC50 in data set [3] came to 0.169 µM; in data set [5] it was 140 nM.

As for `CCn1cc(-c2ccccc2[C@@H]2CN(C(=O)C#CC(C)(C)N)Cc3sc(C#N)cc32)c(C(F)(F)F)n1` [Example 134, (S)-6-(4-Amino-4-methylpent-2-ynoyl)-4-(2-(1-ethyl-3-(trifluoromethyl)-1H-pyrazol-4-yl)phenyl)-4,5,6,7-tetrahydrothieno[2,3-c]pyridine-2-carbonitrile], the IC50 in data set [3] turned out to be 3.12 µM; in data set [5], 320 nM.

Regarding `CCn1cc(-c2ccccc2[C@@H]2CN(C(=O)/C=C/[C@H]3CCCN3C)Cc3sc(C#N)cc32)c(C(F)(F)F)n1` [Example 90, (S)-4-(2-(1-Ethyl-3-(trifluoromethyl)-1 H-pyrazol-4-yl)phenyl)-6-((E)-3-((R)-1-methylpyrrolidin-2-yl)acryloyl)-4,5,6,7-tetrahydrothieno[2,3-c]pyridine-2-carbonitrile], the half-maximal inhibitory concentration (IC50) was 3.05 µM in data set [3] and 5680 nM in data set [5].

Regarding `CCn1cc(-c2ccccc2C2CN(C(=O)/C=C/CN(C)C)Cc3sc(C#N)c(Cl)c32)c(C(F)(F)F)n1` (stereo not shown) [Example 214, (E)-3-chloro-6-(4-(dimethylamino)but-2-enoyl)-4-(2-(1-ethyl-3-(trifluoromethyl)-1 H-pyrazol-4-yl)phenyl)-4,5,6,7-tetrahydrothieno[2,3-c]pyridine-2-carbonitrile], the IC50 in data set [3] amounted to 0.356 µM; in data set [5], 3970 nM.

On to `CCn1cc(-c2ccccc2[C@@H]2CN(C(=O)/C=C/C(C)N(C)C)Cc3sc(C#N)cc32)c(C(F)(F)F)n1` (stereo partly shown) [Compound 235], for which the 50% inhibitory concentration (IC50) amounted to 0.285 µM in data set [3] and 4150 nM in data set [5].

Turning to `COc1cncnc1-n1cc(-c2ccccc2[C@@H]2CN(C(=O)/C=C/CN(C)C)Cc3sc(C#N)cc32)c(C(F)(F)F)n1` [Example 178, (S,E)-6-(4-(dimethylamino)but-2-enoyl)-4-(2-(1-(5-methoxypyrimidin-4-yl)-3-(trifluoromethyl)-1H pyrazol-4-yl)phenyl)-4,5,6,7-tetrahydrothieno[2,3-c]pyridine-2-carbonitrile], the figures for the half-inhibitory concentration (IC50) in data set [3] and in data set [5] were 0.69 µM and 16700 nM, respectively.

Turning to `CC(C)n1cc(-c2ccccc2[C@@H]2CN(C(=O)/C=C/CN(C)C)Cc3sc(C#N)cc32)c(C(F)(F)F)n1` [Example 175], the values for the IC50 in data set [3] and in data set [5] were 0.321 µM and 3050 nM, respectively.

With `CCn1cc(-c2ccccc2[C@@H]2CN(C(=O)/C=C/COC)Cc3sc(C#N)cc32)c(C(F)(F)F)n1` [Example 7, (S, E)-4-(2-(1-Ethyl-3-(trifluoromethyl)-1 H-pyrazol-4-yl)phenyl)-6-(4-methoxybut-2-enoyl)-4,5,6,7-tetrahydrothieno[2,3-c]pyridine-2-carbonitrile], the values for the IC50 in data set [3] and in data set [5] were 1.95 µM and 9310 nM, respectively.

Regarding `CCn1cc(-c2ccccc2[C@@H]2CN(C(=O)/C=C/CNC3(C)CC3)Cc3sc(C#N)cc32)c(C(F)(F)F)n1` [Example 94, (S,E)-4-(2-(1-Ethyl-3-(trifluoromethyl)-1H pyrazol-4-yl)phenyl)-6-(4-((1-methylcyclopropyl)amino)but-2-enoyl)-4,5,6,7-tetrahydrothieno[2,3-c]pyridine-2-carbonitrile], the IC50 was 1.16 µM in data set [3] and 1860 nM in data set [5].

As for `CCn1cc(-c2ccccc2[C@@H]2CN(C(=O)/C=C/C(F)(F)F)Cc3sc(C#N)cc32)c(C(F)(F)F)n1` [Example 22, (S, E)-4-(2-(1-ethyl-3-(trifluoromethyl)-1 H-pyrazol-4-yl)phenyl)-6-(4,4,4-trifluorobut-2-enoyl)-4,5,6,7-tetrahydrothieno[2,3-c]pyridine-2-carbonitrile], the IC50 was found to be 0.214 µM in data set [3] and 390 nM in data set [5].

In the case of `CCn1cc(-c2ccccc2[C@@H]2CN(C(=O)/C=C/[C@@H](C)N)Cc3sc(C#N)cc32)c(C(F)(F)F)n1` [Example 47, (S)-6-((R, E)-4-aminopent-2-enoyl)-4-(2-(1-ethyl-3-(trifluoromethyl)-1 H-pyrazol-4-yl)phenyl)-4,5,6,7-tetrahydrothieno[2,3-c]pyridine-2-carbonitrile], the results for the IC50 in data set [3] and in data set [5] were 2.72 µM and 3370 nM, respectively.

Take `C=CC(=O)N1Cc2sc(Cl)cc2[C@H](c2ccccc2-c2cn(CC)nc2C(F)(F)F)C1` [Comp. Ex. 1, reference compound]: the fraction unbound at 5 h, 1 μM was 0.002 in data set [1] and less than 0.001 in data set [2].

As for `CNC/C=C/C(=O)N1Cc2sc(C#N)c(C)c2[C@H](c2cccc(F)c2-c2cn(C)nc2C(F)(F)F)C1` [Example 216, (S,E)-4-(3-fluoro-2-(1-methyl-3-(trifluoromethyl)-1 H-pyrazol-4-yl)phenyl)-3-methyl-6-(4-(methylamino)but-2-enoyl)-4,5,6,7-tetrahydrothieno[2,3-c]pyridine-2-carbonitrile], the half-maximal inhibitory concentration (IC50) was found to be 0.1 µM in data set [3] and 180 nM in data set [5].

(Values after patent US20240360148A1 (SUVALENT THERAPEUTICS, INC., priority 2021, published 2024).)
